Assay results from patent US20120225135A1 (priority 2010, published 2012).

What was measured:
[1] = system: Cryptosporidium parvum oocysts; details: in vivo
E-Coli Phage = test: Disinfection of effluents, E. coli phage; format: cell-based; details: ClO2 dose 9.86 mg/L, 30 minutes
E. coli = test: Sanitation of fishing holds, E. coli; details: cleaned surface sprayed with 10 ppm ClO2 solution
Source text: Gross filth removed and washed in detergent
Cleaned surface sprayed with 10 ppm ClO2 solution

[2] = system: Poliovirus type 1, ATCC VR-59; format: cell-based; details: pH 9
biofilm = details: cited from earlier work
Total Coliform = test: Disinfection of effluents, total coliforms; format: cell-based; details: for Total Coliforms: effluents, ClO2 dose 9.86 mg/L, 30 minutes; for Total Coliform per 100 mL: trickling filters effluents
[3] = ORP stability test (ORP meter); format: physicochemical
Source text: Two further samples from the original batch were taken one was packed in an amber coloured PET bottle and the second in a HDPE plastic pouch.
Both were placed in an area out of direct sunlight and further the second sample was protected from light by a cardboard box.
Measurements of their voltage were taken using an ORP meter in accordance with the testing procedure described in the ORP related articles above.
Samples were kept in an office environment in Richmond on an exposed bench.
Sampling Equipment EUTECH INSTRUMENTS Waterproof ORPTestr 10

Compound: [O][Cl+][O-] [Chlorine Dioxide, chlorine dioxide]
- reduction of infectivity for mice [1]: > 3 log 10
- E-Coli Phage (E-Coli Phage; pH initial 4.6, final 4.4): 0 MPN per 100 ml
- E-Coli Phage (E-Coli Phage; pH initial 5.5, final 5.6): 0 MPN per 100 ml
- E-Coli Phage (E-Coli Phage; pH initial 6.5, final 6.7): 0 MPN per 100 ml
- E-Coli Phage (E-Coli Phage; pH initial 7.5, final 7.6): 0 MPN per 100 ml
- E-Coli Phage (E-Coli Phage; pH initial 8.2, final 8.1): 2 MPN per 100 ml
- E-Coli Phage (E-Coli Phage; pH initial 9.1, final 9.2): 79 MPN per 100 ml
- E-Coli Phage (E-Coli Phage; pH initial 10.0, final 10.0): 79 MPN per 100 ml
- E. coli (E. coli): below level of detection
- reduction in titer [2]: > 4 log 10
- detachment of biofilms (biofilm): very effective
- Total Coliforms (Total Coliform; pH initial 4.6, final 4.4): 4.5 MPN per 100 ml
- Total Coliforms (Total Coliform; pH initial 5.5, final 5.6): 7.8 MPN per 100 ml
- Total Coliforms (Total Coliform; pH initial 6.5, final 6.7): 7.8 MPN per 100 ml
- Total Coliforms (Total Coliform; pH initial 7.5, final 7.6): 49 MPN per 100 ml
- Total Coliforms (Total Coliform; pH initial 8.2, final 8.1): 4.6 × 10^2 MPN per 100 ml
- Total Coliforms (Total Coliform; pH initial 9.1, final 9.2): 5.4 × 10^3 MPN per 100 ml
- Total Coliforms (Total Coliform; pH initial 10.0, final 10.0): 2.4 × 10^4 MPN per 100 ml
- Total Coliform per 100 mL (Total Coliform; ClO2 dose 2.7 mg/L, contact time 5 min): 2.4 × 10^7 per 100 mL
- Total Coliform per 100 mL (Total Coliform; ClO2 dose 2.7 mg/L, contact time 20 min): 1.3 × 10^7 per 100 mL
- Total Coliform per 100 mL (Total Coliform; ClO2 dose 2.7 mg/L, contact time 35 min): 2.4 × 10^6 per 100 mL
- Total Coliform per 100 mL (Total Coliform; ClO2 dose 5.0 mg/L, contact time 15 min): 2.4 × 10^6 per 100 mL
- Total Coliform per 100 mL (Total Coliform; ClO2 dose 5.0 mg/L, contact time 30 min): 7.9 × 10^3 per 100 mL
- Total Coliform per 100 mL (Total Coliform; ClO2 dose 5.0 mg/L, contact time 45 min): 2.4 × 10^3 per 100 mL
- Total Coliform per 100 mL (Total Coliform; ClO2 dose 10.8 mg/L, contact time 5 min): 1.3 × 10^3 per 100 mL
- Total Coliform per 100 mL (Total Coliform; ClO2 dose 10.8 mg/L, contact time 20 min): 3.3 × 10^2 per 100 mL
- ORP mV ([3]; Card Board Wine Cask, April 20 (2005/2006)): 991 mV
- ORP mV ([3]; Card Board Wine Cask, August 3 (2005/2006)): 987 mV
- ORP mV ([3]; Card Board Wine Cask, August 24 (2005/2006)): 1143 mV
- ORP mV ([3]; Card Board Wine Cask, January 18 (2005/2006)): 1021 mV
- ORP mV ([3]; Card Board Wine Cask, July 7 (2005/2006, first entry)): 970 mV
- ORP mV ([3]; Card Board Wine Cask, July 12 (2005/2006, last entry)): 975 mV
- ORP mV ([3]; Card Board Wine Cask, July 18 (2005/2006)): 980 mV
- ORP mV ([3]; Card Board Wine Cask, June 2 (2005/2006)): 970 mV
- ORP mV ([3]; Card Board Wine Cask, March 14 (2005/2006)): 1008 mV
- ORP mV ([3]; Card Board Wine Cask, May 11 (2005/2006)): 970 mV
- ORP mV ([3]; Card Board Wine Cask, November 29 (2005/2006)): 977 mV
- ORP mV ([3]; Card Board Wine Cask, October 21 (2005/2006)): 1036 mV
- ORP mV ([3]; Card Board Wine Cask, September 5 (2005/2006)): 1135 mV
- ORP mV ([3]; Card Board Wine Cask, September 20 (2005/2006)): 1130 mV
- ORP mV ([3]; Sample PET bottle, April 20 2005): 975 mV
- ORP mV ([3]; Sample PET bottle, Aug 8 2005): 926 mV
- ORP mV ([3]; Sample PET bottle, Aug 24 2005): 960 mV
- ORP mV ([3]; Sample PET bottle, July 10 2005): 960 mV
- ORP mV ([3]; Sample PET bottle, July 20 2005): 954 mV
- ORP mV ([3]; Sample PET bottle, June 12 2005): 970 mV
- ORP mV ([3]; Sample PET bottle, June 21 2005): 965 mV
- ORP mV ([3]; Sample PET bottle, May 10 2005): 980 mV
- ORP mV ([3]; Sample PET bottle, May 20 2005): 971 mV
- ORP mV ([3]; Sample PET bottle, Oct 12 2005): 948 mV
- ORP mV ([3]; Sample PET bottle, Oct 28 2005): 941 mV
- ORP mV ([3]; Sample PET bottle, Sept 5 2005): 955 mV
- ORP mV ([3]; Sample PET bottle, Sept 20 2005): 954 mV
